Measured values reported in US11771685B2, “Compounds for the treatment of neurological or mitochondrial diseases” (MUSC FOUNDATION FOR RESEARCH DEVELOPMENT, priority 2018, dated 2023).
In brackets after ≈: the same amount, converted by molar mass.

Experiments:
[1] = Liver microsome stability; type: in vitro ADME; conditions: in vitro; for half-life: liver microsomes, read-out: Liver microsome stability (t1/2)
[2] = test system: 6 Hz electrically-induced seizures in mice; assay: 6 Hz mouse seizure model; type: in vivo; conditions: for Number of Animals Protected / Effective Dose / Time of Peak Effect: 5% DMSO: 95% Neobee; for protection against seizures, preliminary testing: toxicity by Rotarod assay and behavioral observations; for 6 Hz 32 mA N/T, mice protected / 6 Hz 44 mA N/T, mice protected: 1 hr
Procedure: In particular, using (i) electrical model to test for seizures in mice and, separately, (ii) in rat 6 Hz 40V model. More specifically, NT-102 was injected (i.p.) in 5% DMSO/95% Miglyol 840 as vehicle. […] […] The mice were administered the NT-102 at various doses and placed on the rotarod (i.e., “Rotarod (Tox)”) to test if the mice would fall off as a model of due to the effects of NT-102; for the “Rotarod(Tox)” results, the “NIT” indicates the number of mice that fell off the rotarod (e.g., for Rotarod(Tox) results, if N/T is 0/8, then zero out of eight mice fell off). […] […] The 44 mA electrical dosage was used since it is considered to be a model to test for medication-resistant epilepsy.

rat brain slices = assay: Rat in vitro spontaneous electrographic bursting model
Procedure: Synthesis for both compounds has been successfully scaled up. The pharmacokinetic (PK) parameters of these two Vitamin K analogs were determined via intravenous, intraperitoneal and oral administration in mice, and preliminary in vitro ADMET parameters were assessed (Table 3). These compounds are Ames-negative, have hepatic stability greater than 1 hour, can be formulated in oral solution and IV injection solution, can be synthesized in greater than 1 mg quantities, and have established brain PK. However, brain tissue binding was high for both compounds (97-98%). Both 3 (NT-181) and 17 (NT-102) have been tested for efficacy in the 6 Hz mouse seizure model at 22 mA and 32 mA, the corneal kindled mouse model, and the rat in vitro spontaneous electrographic bursting model of pharmacoresistance (Table 4). […] Preliminary studies with this new formulation reveal excellent solubility with full protection in the 6 Hz mouse seizure model at 22 mA, and quantification of both compounds (using this new formulation) in this model at 22 mA, 32 mA and 44 mA, is being performed as well as retesting in the corneal kindled model. […] Rat PK assessments will be performed, and seizure protection assessed in rat models in the ADD workflow such as the 6 Hz model and lamotrigine-resistant amygdala kindled mode.

Brain tissue binding = type: in vitro ADME; conditions: in vitro, read-out: Brain tissue binding (% bound)
[3] = In vivo pharmacokinetics in CD-1 mice; conditions: male, CD-1, mouse, plasma, ip, 20 mg/kg, intraperitoneal 20 mg/kg, 5% DMSO: 95% neobee
Zebrafish larvae = assay: In vivo toxicology in zebrafish larvae
Procedure: Zebrafish larvae, 7 days post-fertilization (dpf), were exposed to compounds at 20, 15, 10, and 5 μM, six larvae per compound. Animals were observed 1, 5, and 24 hr after dosing for overt toxicity (altered survival, morbidity, morphological deformity). Heart rate, behavior, and startle response were monitored at each time point.
Zebrafish (AB strain) were obtained from the Zebrafish International Resource Center (supported by P40 RR012546 from NIH—NCRR). Zebrafish were maintained and crossed according to standard methods (Westerfield, 2000). Fertilized eggs were collected and placed in E3 embryo medium and positioned in an incubator set at 28.5° C. with a 14/10-hr light/dark cycle (Kimmel et al., 1995). To determine the lethal dose of each compound, 96-well plates containing one zebrafish (7 days post-fertilization, dpf) per well in 100 μL of tank water were used. 100 μL of each compound (0.5-15 μM) was added to each well for 12 animals (one row) for a final volume of 200 μL. One row of larvae was used as dimethyl sulfoxide (DMSO)-only controls. […] All zebrafish studies were approved by the Medical University of South Carolina Institutional Animal Care and Use Committee (#180278) and performed in accordance with the guidelines.
Using a 96-well plate, 7 dpf zebrafish were placed one per well with 100 μL of tank water. 100 μL of each compound was then added to each well for 12 animals (one row) for a final volume of 200 μL. One row of zebrafish larvae was used as DMSO only controls.

[4] = Rotarod neurotoxicity test in mice; type: in vivo, mouse; conditions: for Neurotoxicity (Rotorod assay), animals showing toxicity: 5% DMSO: 95% Neobee; for Rotarod (Tox) N/T, mice that fell off: 1 hr, 32 mA study
[5] = Aqueous solubility at pH 7.4; type: physicochemical; conditions: pH 7.4, aqueous buffer; 50 mM phosphate buffer
[6] = Rotarod neurotoxicity test in mice; type: in vivo, mouse; conditions: 1 hr, 44 mA study
Procedure: Mice or rats were administered the NT-102 compound i.p., one hour was allowed to pass (since the time to peak effect was determined to be about one hour), and then rodents were then placed on the Rotarod to determine if any motor defects would be observed; after the rotarod test, then rodents were administered an electrical stimulation to determine if the dose of NT-102 would protect against (i.e., prevent) the seizures due to the electrical stimulation. In particular, using (i) electrical model to test for seizures in mice and, separately, (ii) in rat 6 Hz 40V model. More specifically, NT-102 was injected (i.p.) in 5% DMSO/95% Miglyol 840 as vehicle. Mice were challenged with 6 Hz 44 mA current to see if seizures would result. […] The Time of Peak Effect (TPE) was observed 1 hour. Additional data is shown below in Table 5. The mice were administered the NT-102 at various doses and placed on the rotarod (i.e., “Rotarod (Tox)”) to test if the mice would fall off as a model of due to the effects of NT-102; for the “Rotarod(Tox)” results, the “NIT” indicates the number of mice that fell off the rotarod (e.g., for Rotarod(Tox) results, if N/T is 0/8, then zero out of eight mice fell off). For the electrical stimulation data (i.e., “6 Hz 44 mA”), an electrical stimulation of 6 Hz 44 mA was administered. […] The 44 mA electrical dosage was used since it is considered to be a model to test for medication-resistant epilepsy.

With `CCC#CCNC1=CC(=O)c2ccccc2C1=O` [Compound 3, 2-(Pent-2-yn-1-ylamino)naphthalene-1,4-dione] the “Liver microsome stability (t1/2)” value ([1]; listed as NT-181) was over 1 h, the half-life [1] was over 1 h and the “Number of Animals Protected” value ([2]; 22 mA, 100 mg/kg) was 8/8 at 100 mg/kg. For the same compound, the “Effective Dose” value ([2]; 22 mA) was 80.60 (25-100) mg/kg, the “Time of Peak Effect” value ([2]; 22 mA) was 0.5 h and the “Number of Animals Protected” value ([2]; 32 mA, 100 mg/kg) was 0/7. The “Number of Animals Protected” value ([2]; 32 mA, 300 mg/kg) was 3/8, the “Number of Animals Protected” value ([2]; 44 mA, 100 mg/kg) was 0/8 at 100 mg/kg and the “protection against seizures, preliminary testing” value [2] was “displayed protection against seizures with few or no toxic events”. For the same compound, the Number protected (rat brain slices; 5 uM) was 0/8 at 5 uM, the fraction unbound (Brain tissue binding) was 0.02 to 0.03 and the AUC(0-inf) [3] was 478 ng·h/mL. The Cmax [3] was 147 ng/mL, the MRT inf [3] was 4.2 h and the Tmax [3] was 1 h. The “concentration lethal/toxic at 24 hr” value (Zebrafish larvae; 7 dpf larvae, 24 hr) was “above 5 μM”, the “Neurotoxicity (Rotorod assay), animals showing toxicity” value [4] was 1/71 showed toxicity and the solubility [5] was 4.79 µg/mL (≈ 20 µM).

With `CC(C)CCNC1=CC(=O)c2ccccc2C1=O` [Compound 17, 2-(Isopentylamino)naphthalene-1,4-dione] the “Rotarod (Tox) N/T, mice that fell off” value ([6]; 100 mg/kg i.p.) was 0/8, the “Rotarod (Tox) N/T, mice that fell off” value ([6]; 200 mg/kg i.p.) was 2/8 and the “Rotarod (Tox) N/T, mice that fell off” value ([6]; 300 mg/kg i.p.) was 0/8. For the same compound, the “Rotarod (Tox) N/T, mice that fell off” value ([6]; 400 mg/kg i.p.) was 1/8, the “Liver microsome stability (t1/2)” value ([1]; listed as NT-102) was over 1 h and the half-life [1] was over 1 h. For the same compound, the “6 Hz 32 mA N/T, mice protected” value ([2]; 50 mg/kg) was 0/8, the “6 Hz 44 mA N/T, mice protected” value ([2]; 100 mg/kg i.p.) was 0/8 and the “6 Hz 32 mA N/T, mice protected” value ([2]; 100 mg/kg) was 4/8. For the same compound, the “6 Hz 44 mA N/T, mice protected” value ([2]; 200 mg/kg i.p.) was 2/8, the “6 Hz 32 mA N/T, mice protected” value ([2]; 200 mg/kg) was 3/8 and the “6 Hz 44 mA N/T, mice protected” value ([2]; 300 mg/kg i.p.) was 4/8. For the same compound, the “6 Hz 32 mA N/T, mice protected” value ([2]; 300 mg/kg) was 7/8, the “6 Hz 44 mA N/T, mice protected” value ([2]; 400 mg/kg i.p.) was 8/8 and the “Time of Peak Effect (TPE)” value ([2]; 6 Hz 44 mA, i.p., 5% DMSO/95% Miglyol 840) was 1 h. For the same compound, the “Number of Animals Protected” value ([2]; 22 mA, 400 mg/kg) was 8/8 at 400 mg/kg, the “Effective Dose” value ([2]; 22 mA) was 209.05 (25-400) mg/kg and the “Time of Peak Effect” value ([2]; 22 mA) was 0.25 h. The “Number of Animals Protected” value ([2]; 32 mA, 400 mg/kg) was 2/8 at 400 mg/kg, the ED50 ([2]; Mus musculus, 6 Hz 32 mA) was 153 mg/kg and the “protection against seizures, preliminary testing” value [2] was “displayed protection against seizures with few or no toxic events”. For the same compound, the Number protected (rat brain slices; 10 uM) was 0/9 at 10 uM, the fraction unbound (Brain tissue binding) was 0.02 to 0.03 and the AUC(0-inf) [3] was 1730 ng·h/mL. It also gave a Cmax [3] of 320 ng/mL, an MRT inf [3] of 4.39 h and a Tmax [3] of 1 h. For the same compound, the “Rotarod (Tox) N/T, mice that fell off” value ([4]; 50 mg/kg) was 0/8, the “Rotarod (Tox) N/T, mice that fell off” value ([4]; 100 mg/kg) was 0/8 and the “Rotarod (Tox) N/T, mice that fell off” value ([4]; 200 mg/kg) was 1/8. For the same compound, the “Rotarod (Tox) N/T, mice that fell off” value ([4]; 300 mg/kg) was 3/8, the “Neurotoxicity (Rotorod assay), animals showing toxicity” value [4] was 0/72 showed toxicity and the solubility [5] was 9.64 µg/mL (≈ 39.6 µM).

For `CC(C)CCOC1=CC(=O)c2ccccc2C1=O` [Compound 25, 2-(Isopentyloxy)naphthalene-1,4-dione], the survival (Zebrafish larvae; 24 hr, highest concentrations) was “⅔” and the “concentration with no overt toxicity” value (Zebrafish larvae; AB, zebrafish, in vivo) was at most 10 µM.
